Values of other authors as cited in patent publication US8039631B2, “Process for preparing crystalline form A of Lansoprazole” (Daewoong Pharmaceutical Co., Ltd., priority 2006, dated 2011).
Where two headings read alike, the source gives them in different places.

Columns and labels:
[1] = not given; remark: listed apart in the source

| SMILES | stability (change) when stored (stored for one year at room temperature or elevated temperature) | change in the crystalline form on storage (at elevated temperature) | stability when stored (stored for one year at a low temperature (0° C. or lower)) | conversion of Form B to Form A ([1]; at 40° C.) | conversion of Form B to Form A ([1]; at a temperature of 10° C. or lower) |
| --- | --- | --- | --- | --- | --- |
| Cc1c(OCC(F)(F)F)ccnc1C[S+]([O-])c1nc2ccccc2[nH]1 (centres unmarked) [Form A, Lansoprazole] | does not change |  |  |  |  |
| Cc1c(OCC(F)(F)F)ccnc1C[S+]([O-])c1nc2ccccc2[nH]1 (centres unmarked) [Form B, Lansoprazole] |  | some change in the crystalline form | high stability | rapidly | slowly converted to Form A |
